# Reference: ChEMBL document CHEMBL3763120, “Phenyl Benzenesulfonylhydrazides Exhibit Selective Indoleamine 2,3-Dioxygenase Inhibition with Potent in Vivo Pharmacodynamic Activity and Antitumor Efficacy” (J Med Chem, 2016)
# Key:
# Mus musculus = assay: Decrease in ratio of kynurenine to tryptophan in Balb/c mouse tumor xenografted with CT26 cells at 100 mg/kg bid for 18 days administered via oral gavage after 2 hrs by LC-MS/MS analysis; format: functional
# [1] = Half life in Sprague-Dawley rat plasma at 2 mg/kg, iv by LC-MS/MS analysis; format: ADME, organism-based; conditions: Sprague-Dawley, plasma
structure (smiles),measurement,setting,value
O=C1Cc2cc(S(=O)(=O)NNc3ccc(Br)cc3)ccc2N1,inhibition in vivo at 100 mg/kg,Mus musculus,58%
same,half-life,[1],2.3 h
